Legend:
Type in all cases: cell-based
[1] = tested on: Notch signaling (hNotch1ΔE, human Notch1 receptor) in HeLa cells; experiment: Notch reporter assay (luciferase luminescence readout in transfected HeLa cells); conditions: Homo sapiens, 20 hours, relative to DMSO baseline level of 1.0, read-out: AVEw, weighted arithmetic mean of double-normalized Notch-reporter luciferase luminescence values (Activity Range)
Summary of the method: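 HeLa cells were transiently transfected for 24 h with membrane-tethered constitutively active hNotch1ΔE, a CSL-promoter Firefly luciferase reporter and constitutive SV40-Renilla luciferase. Compounds were then applied at 10 μM (0.1% DMSO) for 20 h. Firefly/Renilla dual-luciferase ratios were normalized to DMSO control (baseline 1.0), outliers were excluded, and replicate values were averaged across ≥3 independent experiments.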

[2] = tested on: HL-60 cells (human acute myeloid leukemia cells); experiment: alamarBlue proliferation assay with HL-60 cells; conditions: 120 h, 5 days, relative to DMSO baseline level of 1.0, read-out: AVEw, weighted arithmetic mean of normalized fluorescence intensity values (Activity Range), HL-60 proliferation
Summary of the method: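 HL-60 cells (1000/well, RPMI 1640 + 10% FBS) exposed to compound in 0.1% DMSO for 5 days, then alamarBlue fluorescence read (ex 560/em 590 nm). Signals normalized to six DMSO wells per plate (baseline 1.0); outliers removed by Peirce/Chauvenet; weighted mean with combined SD; inhibitor criterion judged at 20 μM reference concentration.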

[3] = tested on: CAL-27 cells (human tongue squamous cell carcinoma cells); experiment: alamarBlue proliferation assay with CAL-27 cells; conditions: Homo sapiens, 120 h, 20 μM, 5 days, relative to DMSO baseline level of 1.0, read-out: AVEw, weighted arithmetic mean of normalized fluorescence intensity values (Activity Range), CAL-27 proliferation
Method: (§1) The antiproliferative activities of compounds falling under formula I, formula II, formula III, formula IV and formula V were investigated on cells or cell lines originating from a disorder of the myeloid cell compartment, the neuroendocrine system, the cervix, and the mucosal epithelium, as well as from the skin epithelium. To this end, HL-60 cells, TT cells, HeLa cells, CAL-27 cells and human primary epidermal keratinocytes (HPEK) were seeded into 96-well plates suitable for fluorescence assays (CORNING #3598) at following initial cell numbers: 1000 cells per well for HL-60; 9000 cells per well for TT; 2000 cells per well for HeLa, 2000 cells per well for CAL-27, 2000 cells per well for HPEK. The cells were treated with compounds at indicated final concentrations (diluted from the 1000× stock-solutions in DMSO to a final DMSO concentration of 0.1% v/v) or with the empty carrier DMSO at 0.1% v/v as control for 5 days. At day 5 after starting the treatments the cells were subjected to the alamarBlue® Proliferation Assay (Bio-Rad Serotec GmbH, BUF012B) according to the protocol of the manufacturer. The readout was taken with a multi-well plate-reader in the fluorescence mode with applying a filter for excitation at 560 nm (band width 10 nm) and for emission at 590 nm (band width 10 nm). Resveratrol (RES) treatment was included as control for growth inhibition.
(§2) The assays were performed in duplicate or more replicates of independent single experiments each containing a six-fold replicate for every condition. For every individual plate, the measured fluorescence intensity values of the conditions with compound treatment were normalized against the corresponding equally weighted arithmetic mean of the fluorescence intensity values of the six DMSO treated control wells in order to obtain the relative values to a baseline level of 1.0. The statistical calculations were performed in analogy to the luciferase assay as described above. To this end, two independent outlier analyses were performed according to the methods by Peirce and Chauvenet (Ross, Journal of Engineering Technology 2003, 1-12). Outliers confirmed by at least one of the methods were excluded from the calculations but not more than one value out of six per compound within a single experiment. The weighted arithmetic mean AVEw for each compound was calculated from the normalized values over all independent replicates of the single experiments comprising the six replicates each. The corresponding standard deviation for the weighted arithmetic mean was calculated according to the method described by Bronstein et al. (Bronstein, Semendjajew, Musiol, Mühlig, Taschenbuch der Mathematik, 5th edition 2001 (German), publisher: Verlag Harri Deutsch, Frankfurt am Main and Thun) and was combined with the Gauß′ error propagation associated with the performed calculation for the normalization. The resulting standard deviation is herein referred to as “combined standard deviation”.
CAL-27 cells were cultivated according to the protocol of the provider (but at 5% instead of 10% CO2) in DMEM medium (Fisherscientific, #11584456) containing 10% fetal bovine serum (Fisherscientific, #15517589).
(§3) A compound is considered as a growth inhibitor of CAL-27 cells, if—at a reference concentration of 20 μM—the weighted arithmetic mean of the normalized fluorescence intensity values after addition of the corresponding combined standard deviation amounts to 0.9 or lower, in particular to 0.8 or lower, 0.7 or lower, 0.6 or lower, 0.4 or lower, and 0.2 or lower, relative to the overall basis level of 1.0. The overall basis level was calculated as the weighted arithmetic mean of all normalized values from the DMSO control measurements in analogy to the calculations performed for the test-compounds. The corresponding combined standard deviation for the DMSO values amounts to less than 1·10^−2.

[4] = tested on: HPEKp cells (human epidermal keratinocyte progenitors, pooled); experiment: alamarBlue proliferation assay with HPEKp cells; conditions: 120 h, relative to DMSO basis level 1.0, read-out: weighted arithmetic mean (AVEw) of normalized fluorescence intensity, activity range
Method: as §1, §2
HPEKp cells were cultivated according to the protocol of the provider in CnT-Prime epithelial culture medium (CELLnTEC, #CnT-PR, a fully defined, low calcium formulation, completely free of animal or human-derived components) without addition of further components.
as §3, with “HPEKp” for “CAL-27”, “10” for “20”

SMILES: Cc1ccc(Oc2ccc(C(=O)NO)cn2)cc1 [Compound 266, N-hydroxy-6-(p-tolyloxy)nicotinamide]
- fold induction at 10 µM [1]: 1.4 to 1.7
- activity at 20 µM [2]: 0 to 20%
- activity at 20 µM [3]: 40 to 60%

SMILES: O=C(NO)c1ccc(Oc2ccc(C(F)(F)F)cc2)nc1 [Compound 275, N-Hydroxy-6-(4-(trifluoromethyl)phenoxy)nicotinamide]
- fold induction at 10 µM [1]: 1.2 to 1.3
- activity at 20 µM [2]: 0 to 20%
- activity at 20 µM [3]: 0 to 20%

SMILES: O=C(NO)c1ccc(Oc2ccc(C3C[C@@H]4CC[C@H]3C4)cc2)nc1 (stereo partly drawn) [Compound 286, 6-(4-((1S,4R)-bicyclo[2.2.1]heptan-2-yl)phenoxy)-N-hydroxynicotinamide]
- fold induction at 10 µM [1]: 1.3 to 1.4
- activity at 20 µM [2]: 0 to 20%
- activity at 20 µM [3]: 0 to 20%

SMILES: CCOC(=O)c1ccc(Oc2ccc(C3(C(F)(F)C(F)(F)F)CC3)cc2)nc1 [Compound 749, Ethyl 6-(4-(1-(perfluoroethyl)cyclopropyl)phenoxy)nicotinate]
- activity at 10 µM [4]: 80 to 90%

SMILES: CC(C)c1ccc(Oc2ccc(C(=O)NO)cc2)cc1 [Compound 170, N-hydroxy-4-(4-isopropylphenoxy)benzamide]
- fold induction at 10 µM [1]: 1.1 to 1.2
- activity at 20 µM [2]: 0 to 20%
- activity at 20 µM [3]: 20 to 40%

SMILES: O=C(NO)c1ccc(Oc2ccc(C3C[C@@H]4CC[C@H]3C4)cc2)cc1 (stereo partly drawn) [Compound 184, 4-(4-((1S,4R)-bicyclo[2.2.1]heptan-2-yl)phenoxy)-N-hydroxybenzamide]
- fold induction at 10 µM [1]: 1.3 to 1.4
- activity at 20 µM [2]: 0 to 20%
- activity at 20 µM [3]: 0 to 20%

SMILES: CCCc1ccc(Oc2ccc(C(N)=O)cc2)cc1 [Compound 140, 4-(4-propylphenoxy)benzamide]
- activity at 10 µM [4]: 80 to 90%

SMILES: CN(C)C(=O)c1ccc(Oc2ccc(C3(C(F)(F)F)CC3)cc2)nc1 [Compound 820, N,N-Dimethyl-6-(4-(1-(trifluoromethyl)cyclopropyl)phenoxy)-nicotinamide]
- fold induction at 10 µM [1]: 1.4 to 1.7
- activity at 20 µM [2]: 40 to 60%
- activity at 20 µM [3]: 80 to 90%

SMILES: CCCCc1ccc(Oc2ccc(C(=O)NO)cn2)cc1 [Compound 269, 6-(4-butylphenoxy)-N-hydroxynicotinamide]
- fold induction at 10 µM [1]: 1.4 to 1.7
- activity at 20 µM [2]: 0 to 20%
- activity at 20 µM [3]: 0 to 20%

SMILES: COC(=O)c1ccc(Oc2ccc(C3(C(F)(F)F)CC3)cc2Cl)nc1 [Compound 747, methyl 6-(2-chloro-4-(1-(trifluoromethyl)cyclopropyl)phenoxy)nicotinate]
- activity at 10 µM [4]: 80 to 90%

SMILES: COC(=O)c1ccc(Oc2ccc(C3C[C@@H]4CC[C@H]3C4)cc2)nc1 (stereo partly drawn) [Compound 112, methyl 6-(4-((1S,4R)-bicyclo[2.2.1]heptan-2-yl)phenoxy)nicotinate]
- activity at 10 µM [4]: 40 to 60%

SMILES: NC(=O)c1ccc(Oc2ccc(C3(C(F)(F)F)CC3)cc2Cl)nc1 [Compound 801, 6-(2-chloro-4-(1-(trifluoromethyl)cyclopropyl)phenoxy)nicotinamide]
- activity at 10 µM [4]: 80 to 90%

SMILES: CCc1ccc(Oc2ccc(C(=O)NC)cc2)cc1 [Compound 190, 4-(4-ethylphenoxy)-N-methylbenzamide]
- activity at 10 µM [4]: 60 to 70%

SMILES: O=C(NO)c1ccc(Oc2ccc(C3(C(F)(F)F)CC3)cc2)cc1 [Compound 766, N-hydroxy-4-(4-(1-(trifluoromethyl)cyclopropyl)phenoxy)benzamide]
- activity at 20 µM [2]: 0 to 20%
- activity at 20 µM [3]: 0 to 20%

SMILES: CC(C)(C)c1ccc(Oc2ncc(C(=O)O)cc2F)cc1 [Compound 424, 6-(4-(tert-butyl)phenoxy)-5-fluoronicotinic acid]
- activity at 10 µM [4]: 70 to 80%

SMILES: CCCc1ccc(Oc2ccc(C(=O)NO)cn2)cc1 [Compound 268, N-hydroxy-6-(4-propylphenoxy)nicotinamide]
- fold induction at 10 µM [1]: 1.3 to 1.4
- activity at 20 µM [2]: 0 to 20%
- activity at 20 µM [3]: 0 to 20%

SMILES: CCCCCc1ccc(Oc2ccc(C(=O)NO)cc2)cc1 [Compound 168, N-hydroxy-4-(4-pentylphenoxy)benzamide]
- fold induction at 10 µM [1]: 1.3 to 1.4
- activity at 20 µM [2]: 0 to 20%
- activity at 20 µM [3]: 0 to 20%

SMILES: CN(C)C(=O)c1ccc(Oc2ccc(C34CC5CC(CC(C5)C3)C4)cc2)c(F)c1 [Compound 596, 4-(4-((3r,5r,7r)-adamantan-1-yl)phenoxy)-3-fluoro-N,N-dimethylbenzamide]
- activity at 20 µM [2]: 20 to 40%
- activity at 20 µM [3]: 80 to 90%

SMILES: CCCCCc1ccc(Oc2ccc(C(=O)NO)cn2)cc1 [Compound 270, N-hydroxy-6-(4-pentylphenoxy)nicotinamide]
- activity at 20 µM [2]: 0 to 20%
- activity at 20 µM [3]: 0 to 20%

SMILES: Cc1ccc(Oc2ccc(C(=O)NO)cc2)cc1 [Compound 164, N-hydroxy-4-(p-tolyltoxy)benzamide]
- activity at 20 µM [2]: 40 to 60%
- activity at 20 µM [3]: 70 to 80%

SMILES: O=C(NO)c1ccc(Oc2ccc(C3(C(F)(F)C(F)(F)F)CC3)cc2)cc1 [Compound 767, N-hydroxy-4-(4-(1-(perfluoroethyl)cyclopropyl)phenoxy)benzamide]
- activity at 20 µM [2]: 0 to 20%
- activity at 20 µM [3]: 0 to 20%

SMILES: CN(C)C(=O)c1ccc(Oc2ccc(C3C[C@@H]4CC[C@H]3C4)cc2)cc1 (stereo partly drawn) [Compound 236, 4-(4-((1S,4R)-bicyclo[2.2.1]heptan-2-yl)phenoxy)-N,N-dimethylbenzamide]
- activity at 20 µM [2]: 40 to 60%
- activity at 20 µM [3]: 80 to 90%

SMILES: CN(C)C(=O)c1cnc(Oc2ccc(C3(C(F)(F)F)CC3)cc2)c(F)c1 [Compound 822, 5-fluoro-N,N-dimethyl-6-(4-(1-(trifluoromethyl)cyclopropyl)phenoxy)nicotinamide]
- activity at 20 µM [2]: 70 to 80%
- activity at 20 µM [3]: 80 to 90%

SMILES: CCc1ccc(Oc2ccc(C(=O)NO)cn2)cc1 [Compound 267, 6-(4-ethylphenoxy)-N-hydroxynicotinamide]
- fold induction at 10 µM [1]: 1.1 to 1.2
- activity at 20 µM [2]: 0 to 20%
- activity at 20 µM [3]: 20 to 40%

SMILES: O=C(NO)c1ccc(Oc2ccc(C3(C(F)(F)F)CC3)cc2Cl)cc1 [Compound 774, 4-(2-chloro-4-(1-(trifluoromethyl)cyclopropyl)phenoxy)-N-hydroxybenzamide]
- activity at 20 µM [2]: 0 to 20%
- activity at 20 µM [3]: 70 to 80%

SMILES: CN(C)C(=O)c1ccc(Oc2ccc(C34CC5CC(CC(C5)C3)C4)cc2)cc1 [Compound 238, 4-(4-((3r,5r,7r)-adamantan-1-yl)pheoxy)-N,N-dimethylbenzamide]
- activity at 20 µM [2]: 40 to 60%
- activity at 20 µM [3]: 60 to 70%
